According to patent US20250304916A1, “METHODS AND COMPOSITIONS FOR GENERATING VASCULAR LEPTOMENINGEAL CELLS” (Trailhead Biosystems Inc., priority 2024, published 2025):
“And” between values parts separate entries of the source, which are not always exact repeats. Equal values may be shown once.

Columns and labels:
Assay type in all cases: cell-based, human
[1] = test system: PDGFRA expression; assay: HD-DoE 8-factor modeling experiment (stage 3), model optimized for maximum expression of PDGFRA; conditions: FIG. 2; for factor contribution, negative impact on PDGFRA expression: model optimized for maximum expression of PDGFRA; for factor contribution, positive impact on PDGFRA expression: model optimized for maximum expression of PDGFRA at 853
Experimental: (§1) To engineer the recipe of stage 3 of differentiation, cells were first cultured in stage 1 and stage 2 media (described in detail in US Publications 2022/0315891 and 2024/0043798). Then, 48 or 96 different combinations of effectors generated using HD-DoE compression through D-optimality were robotically prepared. The effector combinations were prepared in a basal media and were subsequently added to the cells, which were then allowed to differentiate. 3 days later RNA extraction was performed, and gene expression was obtained using quantitative PCR analysis. The data was normalized and modeled using partial least squares regression analysis to the effector design, resulting in the generation of gene-specific models, which after model tuning for maximal predictive power, provided explanation of the effectors ability to control the expression of individual genes, combinatorically, and individually. Solutions within the tested space were then further explored to address desirability.
(§2) In one 8-factor modeling experiment, the individual and combinatorial effect of CHIR99021 (a WNT pathway agonist), AGN193109 (an RA pathway antagonist), FGF-2 (FGFR pathway agonist), Purmorphamine (a SHH pathway agonist), TTNPB (an RA pathway agonist), IGF-1 (an IGF-1 pathway agonist), MHY1485 (a mTOR pathway agonist), and Sc79 (an Akt pathway agonist), on further differentiation of cells were tested. […] Sc79 had the highest negative impact on its expression with factor contribution of 30.
The highest positive contribution was from Purmorphamine with factor contribution of 21 and IGF-1 with factor contribution of 11. MHY1485 and AGN193109 had the highest negative impact with factor contribution of 21 and 23, respectively (FIG. 2). […] When the model was optimized, expression levels were observed of NKX2-2 at 1200, OLIG1 at 550, OLIG2 at 1000, PDGFRA at 500, SOX8 at 70, and SOX10 at 35 (FIG. 4).

[2] = test system: SOX10 expression; assay: HD-DoE 8-factor modeling experiment (stage 3), model optimized for maximum expression of SOX10, qPCR gene expression; conditions: for effect on expression of SOX10 (dynamic profile): model optimized for maximal SOX10 expression, FIG. 4; for factor contribution, positive regulatory effect on SOX10 expression: model optimized for maximum expression of SOX10 at 40
Experimental: as §1, §2

[3] = test system: SOX8 expression; assay: HD-DoE 8-factor modeling experiment (stage 3), model optimized for maximal expression of SOX8; conditions: FIG. 3
Experimental: as §1
In one 8-factor modeling experiment, the individual and combinatorial effect of CHIR99021 (a WNT pathway agonist), AGN193109 (an RA pathway antagonist), FGF-2 (FGFR pathway agonist), Purmorphamine (a SHH pathway agonist), TTNPB (an RA pathway agonist), IGF-1 (an IGF-1 pathway agonist), MHY1485 (a mTOR pathway agonist), and Sc79 (an Akt pathway agonist), on further differentiation of cells were tested. […]

[4] = test system: OLIG1 and NKX2-2 expression; assay: HD-DoE 12-factor modeling experiment (stage 3), models optimized for maximal expression of OLIG1 and NKX2-2 simultaneously; conditions: FIG. 5; for factor contribution, positive effect on upregulation of OLIG1 and NKX2-2: models optimized for OLIG1 (192) and NKX2-2 (486) simultaneously
Experimental: as §1
Another 12-factor modeling experiment was performed to study the effect of additional factors on expression level of target genes at stage 3. In this experiment, Activin A, Linoleic acid (a polyunsaturated fatty acid), DBZ (GSI-XX) (a NOTCH pathway inhibitor), ZM336372 (a c-Raf inhibitor), AZD3147 (a mTOR pathway inhibitor), PDGF-AA (a PDGF pathway agonist) and MK2206 (an Akt pathway inhibitor), along with AGN193109, TTNPB, FGF2, IGF-1, and MHY1485, were tested. According to literature, proteins such as FGF-2, IGF-1, and PDGF-AA play an important role in oligodendrocyte differentiation (Goldman and Kuypers (2015) Development 142:3983-95). Models were optimized for maximal expression of OLIG1 with expression level of 192 and NKX2-2 with expression level of 486 simultaneously. […] MK2206 with factor contribution of 19 had the highest negative impact on expression of these genes. […] To confirm the impact of identified factors on a bigger scale, the expression profile of a larger group of genes defining late oligodendrocyte progenitor population (Perlman et al. (2020) Glia 68:1291-1303; Goldman and Kuypers (2015) Development 142:3983-95; van Tilborg et al. (2018) Glia 66:221-238) was investigated. At maximal expression of OLIG1 and NKX2-2, other desired genes such as CNP, IGFBP2, MYC, and MYT-1 were highly expressed, while neuronal genes, NEUROD1, NEUROG1, and NEUROG2 had expression levels less than 30.

[5] = test system: MBP expression; assay: HD-DoE 8-factor model (stage 4), optimized for maximum expression of MBP; conditions: model optimized for MBP at 274; FIG. 6

## Cc1ccc(C2=CCC(C)(C)c3ccc(C#Cc4ccc(C(=O)O)cc4)cc32)cc1 [AGN193109]
[1]
  factor contribution, negative impact on PDGFRA expression: 23

## Cc1c[nH]c(-c2cnc(NCCNc3ccc(C#N)cn3)nc2-c2ccc(Cl)cc2Cl)n1 [CHIR99021]
[1]
  factor contribution, positive impact on PDGFRA expression: 8
[2]
  effect on expression of SOX10 (dynamic profile): positive effect
[2]; FIG. 1
  factor contribution, positive regulatory effect on SOX10 expression: 8

## O=[N+]([O-])c1ccc(Nc2nc(N3CCOCC3)nc(N3CCOCC3)n2)cc1 [MHY1485]
[3]
  factor contribution, positive effect on SOX8 expression: 13 and 13.2
[1]
  factor contribution, negative impact on PDGFRA expression: 21

## NC1(c2ccc(-c3nc4ccn5c(=O)[nH]nc5c4cc3-c3ccccc3)cc2)CCC1 [MK2206]
[4]; models optimized for OLIG1 and NKX2-2 simultaneously
  factor contribution, negative impact on expression of OLIG1 and NKX2-2: 19

## c1ccc2c(Oc3nc(Nc4ccc(N5CCOCC5)cc4)c4ncn(C5CCCCC5)c4n3)cccc2c1 [Purmorphamine]
[1]
  factor contribution, positive impact on PDGFRA expression: 21 and 20.6

## CCOC(=O)C1=C(N)Oc2ccc(Cl)cc2C1C(C#N)C(=O)OCC (centres unmarked) [Sc79]
[2]; model optimized for maximum expression of SOX10, FIG. 1
  factor contribution, negative impact on SOX10 expression: 30

## N[C@@H](Cc1cc(I)c(Oc2ccc(O)c(I)c2)c(I)c1)C(=O)O [T3]
[5]
  factor contribution, positive impact on MBP expression: 18.1

## C/C(=C\c1ccc(C(=O)O)cc1)c1ccc2c(c1)C(C)(C)CCC2(C)C [TTNPB]
[1]
  factor contribution, positive impact on PDGFRA expression: 0.6
[2]
  effect on expression of SOX10 (dynamic profile): positive effect
[2]; FIG. 1
  factor contribution, positive regulatory effect on SOX10 expression: 18

## CCCCC/C=C\C/C=C\CCCCCCCC(=O)O [linoleic acid]
[4]
  factor contribution, positive effect on upregulation of OLIG1 and NKX2-2: 12

## Dibenzazepine [DBZ]
[5]
  factor contribution, positive impact on MBP expression: 18.1
[4]
  factor contribution, positive effect on upregulation of OLIG1 and NKX2-2: 13
[4]; listed as GSI-XX (DBZ)
  factor contribution, positive effect on upregulation of OLIG1 and NKX2-2: 13.2

## FGF-2: FGFR pathway agonist; naturally occurring ligand
[2]
  effect on expression of SOX10 (dynamic profile): positive effect
[2]; FIG. 1
  factor contribution, positive regulatory effect on SOX10 expression: 15

## IGF-1: insulin-like growth factor 1; an IGF-1 pathway agonist
[3]
  factor contribution, positive effect on SOX8 expression: 16 and 15.6
[1]
  factor contribution, positive impact on PDGFRA expression: 11 and 11.22
[2]; dynamic profile analysis, decreased from 40 without IGF-1
  expression level of SOX10 after addition of IGF-1 to the suggested recipe: 35

## PDGF-AA: a PDGF pathway agonist; ligand of a PDGFR
[4]
  factor contribution, positive effect on upregulation of OLIG1 and NKX2-2: 21
